Laboratory results published in US7084158B2, “Substituted propargylamines” (Bayer Cropscience S.A., priority 2001, dated 2006).

Legend:
Type in all cases: in vivo
Set-up in all cases: key: compounds were considered to be active when, at a concentration of 500 ppm or less, they had an activity on the harmful organisms of 50% or more
[1] = system: Heliothis virescens; test: Example AH: sprayed cotton leaves, antifeeding activity on tobacco budworm larvae; details: 500 ppm or less, L2 larvae, after 2, 3 and 4 days
Description: Cotton leaves were placed into a Petri dish, sprayed with an aqueous solution of the formulated compound to be examined and, after drying, populated with 5 L2 larvae of the American tobacco budworm (Heliothis virescens). After 2, 3 and 4 days of storage at about 25° C., the antifeeding activity of the compound on the larvae was determined. The following examples were active: 1036, 70, 60.

[2] = system: Plutella maculipennis; test: Example P: dipped cabbage leaf, diamondback moth larvae; details: 500 ppm or less, after 3 days
Description: A cabbage leaf was dipped for about 5 seconds into an aqueous solution of the formulated compound to be examined. After drying, the cabbage leaf treated in this manner was transferred into a container and populated with 10 larvae of the diamondback moth (Plutella maculipennis). The container was then closed with a lid. After 3 days of storage at about 23° C., the effect of the compound on the larvae was determined. The following examples were active: 1036, 70, 60, 209.

[3] = system: Ctenocephalides felis; test: Example M: cat fleas fed with treated cattle blood, mortality; details: 500 ppm or less; adult fleas fed blood-preparation mixture; after 48 hours
Description: The formulated compound was mixed with defibrinated cattle blood. 10 adult cat fleas (Ctenocephalides felis) were fed with this blood-preparation mixture. After 48 hours at about 38° C., the effect of the compound on the fleas was determined (mortality). The compounds of the following examples were active: 70, 1002, 1004, 1005, 1036, 60, 197, 1057.

[4] = system: Carpocapsa pomonella; test: Example I: insect diet and L1 larvae sprayed, codling moth mortality; details: 500 ppm or less, after 8 days
Description: Ten L1 larvae of the codling moth (Carpocapsa pomonella) were placed into a Petri dish filled with insect diet. Insect diet and the larvae used were then sprayed with an aqueous solution of the formulated compound to be examined. The Petri dish was then closed with a lid. After 8 days of storage at about 23° C., the effect of the compound on the larvae was determined (mortality). The compounds of the following examples were active: 60, 70, 1002, 1005.

[5] = system: Diabrotica undecimpunctata; test: Example AC: treated soil, southern corn rootworm eggs mortality; details: 500 ppm or less, eggs added after 0d, 21d and 42d, after 2 weeks
Description: An aqueous solution of the formulated compound to be examined was mixed with soil. After 0d, 21d and 42d, eggs of the southern corn rootworm (Diabrotica undecimpunctata) were placed together with 2 pre-swollen maize corns into a dish, covered with the treated soil and moisted with 10 ml of water. Soil and eggs were placed in a greenhouse (23° C., 60% relative atmosphere humidity). After 2 weeks of storage, the effect of the compound on the eggs and any larvae hatched therefrom was determined (mortality). The following examples were active: 70, 60, 197, 204.

[6] = system: Spodoptera exigua; test: Example X: dipped freeze-dried diet cube, sugar beet armyworm L2 larvae mortality; details: 500 ppm or less, after 4 days
Description: Insect diet (as freeze-dried cube) was dipped into an aqueous solution of the formulated compound to be examined and then placed into a Petri dish. 10 L2 larvae of the sugar beet armyworm (Spodoptera exigua) were then added. The Petri dish was then closed with a lid. After 4 days of storage at about 23° C., the mortality among the larvae was determined. The following examples were active: 1036, 60.

[7] = system: Diabrotica undecimpunctata; test: Example C: corn rootworm eggs with maize corn, mortality; details: 500 ppm or less; 4-5-day-old eggs; after 6 days
[8] = system: Leptinotarsa decemlineata; test: Example AI: sprayed potato plant, repellent effect on Colorado beetle larvae; details: 500 ppm or less; sprayed plant with untreated plant in a cage; after 1 and 3 days
Excerpt: A potato plant was sprayed with an aqueous solution of the formulated compound to be examined and, together with an untreated plant, placed in a cage. The cage was populated with 100 larvae of the Colorado beetle (Leptinotarsa decemlineata). […] The following examples were active: 1036, 70, 60.

[9] = system: Spodoptera littoralis; test: Example G: treated L2 larvae and insect diet, Egyptian cotton leafworm mortality; details: 500 ppm or less, after 6 days
Description: A Petri dish whose bottom was covered with filter paper and which contained about 5 ml of insect diet is prepared. Five L2 larvae of the Egyptian cotton leafworm (Spodoptera littoralis) were counted into a small beaker. 200 μl of an aqueous solution of the formulated preparation to be examined were pipetted into the beaker. The treated larvae were then poured into the Petri dish, and a further 200 μl of the aqueous solution were distributed over the insect diet. The Petri dish was closed and then stored at about 25° C. in a climatized chamber. After 6 days of storage, the effect of the compound on the larvae was determined (mortality). The compounds of the following examples were active: 29, 70, 60, 159, 1005, 1040, 1042, 1044, 1045, 1046, 1047.

[10] = system: Trialeurodes vaporariorum; test: Example AD: bush beans sprayed, white fly larvicidal action; details: 500 ppm or less; bush beans sprayed after hatching; after 11 days
Description: For oviposition, bush beans (Phaseolus vulgaris) were populated for 48 hours with adults of the white fly (Trialeurodes vaporariorum). After the larvae had hatched, the plants were sprayed to run-off point with an aqueous solution of the formulated compound to be examined. After 11 days, the larvicidal action was determined. The following examples were active: 1036, 70, 60, 1040, 197.

CC1CCN(CC#Cc2cc(C(F)(F)F)cc(C(F)(F)F)n2)CC1 [Example 60]
active: antifeeding activity on the larvae [1] | effect on the larvae [2] | effect on the fleas (mortality) [3] | effect on the larvae (mortality) [4] | effect on the eggs and hatched larvae (mortality) [5] | mortality among the larvae [6] | effect on the eggs and hatched larvae (mortality) [7] | repellent effect on the larvae [8] | effect on the larvae (mortality) [9] | larvicidal action [10]
